Assay results from US7169932B2 (priority 2001, dated 2007).

Molecular target: T1, HIV-1 protease (Q7S) (Human immunodeficiency virus type 1 group M subtype B, UniProt P04585, Q495S)
T1 construct: made in house
Test: HIV-1 Protease RET Assay
Format: biochemical
Details: Ave. Ki (nM), RET assay, Q7S enzyme, pH 4.8, 37 C
Method: Ki's for the inhibitors of HIV-1 protease were determined using a resonance energy transfer (RET) assay. […] This enzyme is first partially purified as inclusion bodies from cell lysate. It is then solublized in 8M urea and passed through a Q-Sepharose column (Pharmacia) for further purification. To refold this protein, samples containing Q7S is dialyzed into 50 mM sodium phosphate pH 7.0, 50 mM NaCl, 10 mM DTT, and 10% glycerol.
The commercially available peptide substrate (Molecular Probes Cat. # H-2930) RE(EDANS)SQNYPIVQK(DABCYL)R is used to assess activity and Ki's. This peptide is cleaved quantitatively by HIV-1 Pr at the Tyr-Pro bond. The EDANS fluorophore absorbs at 340 nm and emits at 490 nm. The reaction is carried out in a 96 well plate in a total volume of 100 μL and is run for 12 minutes at 37 C under steady-state conditions with 5 μM substrate and 2 nM active dimer enzyme concentration. The literature value Km for this substrate and enzyme is 103+/−8 μM (See Matayoshi, et al., “Novel Fluorogenic Substrates for Assaying Retroviral Proteases by Resonance Energy Transfer,” Science 247, 954 (1990)). The buffer for this reaction is 0.1M sodium acetate pH 4.8, 1M NaCl, 1 mM EDTA, 5 mM dithiothreitol, 10% dimethyl sulfoxide and 1 mg/ml bovine serum albumin. Inhibition curves are fit using the Morrison tight binding equation.

First: CNCCNC(=O)[C@H]1N(C(=O)[C@@H](O)[C@H](Cc2ccccc2)NC(=O)c2cccc(O)c2C)CSC1(C)C [Example A52, 3-((2S,3S)-2-Hydroxy-3-{[1-(3-hydroxy-2-methyl-phenyl)-methanoyl]-amino}-4-phenyl-butanoyl)-5,5-dimethyl-thiazolidine-4-carboxylic acid (2-methylamino-ethyl)-amide]
Second: CCCNC(=O)[C@H]1N(C(=O)[C@@H](O)[C@H](Cc2ccccc2)NC(=O)c2cccc(O)c2C)COC1(C)C [Example C7, (S)-3-((2S,3S)-2-Hydroxy-3-{[1-(3-hydroxy-2-methyl-phenyl)-methanoyl]-amino}-4-phenyl-butanoyl)-5,5-dimethyl-oxazolidine-4-carboxylic acid propylamide]
The Ki of the first is 4.7-fold higher: 37 nM for the first, 7.9 nM for the second. The second binds more tightly here.

Going from `Cc1noc(C)c1C(=O)NC(Cc1ccccc1)C(O)C(=O)N1CSC(C)(C)C1C(=O)NCc1ccccc1C(F)(F)F` (stereo not shown) [Example B27, 3,5-Dimethyl-isoxazole-4-carboxylic acid {1-benzyl-3-[5,5-dimethyl-4-(2-trifluoromethyl-benzylcarbamoyl)-thiazolidin-3-yl]-2-hydroxy-3-oxo-propyl}-amide] to `Cc1ccccc1CNC(=O)[C@H]1N(C(=O)[C@@H](O)[C@H](Cc2ccccc2)NC(=O)c2ccnc(Cl)c2Cl)CSC1(C)C` [Example B41, {(1S,2S)-1-Benzyl-3-[(R)-5,5-dimethyl-4-(2-methyl-benzylcarbamoyl)-thiazolidin-3-yl]-2-hydroxy-3-oxo-propyl}-2,3-dichloro-isonicotinamide], the Ki falls from 3.5 nM to 0.15 nM (23-fold).

Going from `COc1cccc(CNC(=O)[C@H]2N(C(=O)[C@@H](O)[C@H](Cc3ccccc3)NC(=O)c3cccc(F)c3C)CSC2(C)C)c1` [Example B32, (R)-3-((2S,3S)-3-{[1-(3-Fluoro-2-methyl-phenyl)-methanoyl]-amino}-2-hydroxy-4-phenyl-butanoyl)-5,5-dimethyl-thiazolidine-4-carboxylic acid 3-methoxy-benzylamide] to `Cc1ccccc1CNC(=O)[C@H]1N(C(=O)[C@@H](O)[C@H](Cc2ccccc2)NC(=O)c2ccc(O)cc2C)CSC1(C)C` [Example B39, (R)-3-[(2S,3S)-2-Hydroxy-3-(4-hydroxy-2-methyl-benzoylamino)-4-phenyl-butyryl]-5,5-dimethyl-thiazolidine-4-carboxylic acid 2-methyl-benzylamide], the Ki falls from 4.9 nM to 0.16 nM (31-fold). The second binds more tightly here.

First: Cc1ccccc1CNC(=O)[C@H]1N(C(=O)[C@@H](O)[C@H](Cc2ccccc2)NC(=O)c2ccncc2Cl)CSC1(C)C [Example B42, {(1S,2S)-1-Benzyl-3-[(R)-5,5-dimethyl-4-(2-methyl-benzylcarbamoyl)-thiazolidin-3-yl]-2-hydroxy-3-oxo-propyl}-3-chloro-isonicotinamide]
Second: Cc1ccccc1CNC(=O)[C@H]1N(C(=O)[C@@H](O)[C@H](Cc2ccccc2)NC(=O)c2cccnc2)CSC1(C)C [Example B47, N-{(1S,2S)-1-Benzyl-3-[5,5-dimethyl-4-(2-methyl-benzylcarbamoyl)-thiazolidin-3-yl]-2-hydroxy-3-oxo-propyl}-nicotinamide]
The Ki of the first is 9.5-fold lower: 0.73 nM for the first, 6.9 nM for the second.

Compared with `Cc1cc(O)c(C)c(C(=O)N[C@@H](Cc2ccccc2)[C@H](O)C(=O)N2CSC(C)(C)[C@H]2C(=O)NCc2ccccc2C)c1` [Example B43, (R)-3-[(2S,3S)-2-Hydroxy-3-(3-hydroxy-2,5-dimethyl-benzoylamino)-4-phenyl-butyryl]-5,5-dimethyl-thiazolidine-4-carboxylic acid 2-methyl-benzylamide], `Cc1ccccc1CNC(=O)C1N(C(=O)[C@@H](O)[C@H](Cc2ccccc2)NC(=O)c2ccccn2)CSC1(C)C` (stereo partly drawn) [Example B45, Pyridine-2-carboxylic acid {(1S,2S)-1-benzyl-3-[5,5-dimethyl-4-(2-methyl-benzylcarbamoyl)-thiazolidin-3-yl]-2-hydroxy-3-oxo-propyl}-amide] is 98-fold higher in Ki: 0.2 nM for the first, 19.7 nM for the second.

Going from `C=CCNC(=O)[C@H]1N(C(=O)[C@@H](O)[C@H](Cc2ccccc2)NC(=O)c2cccnc2C)CSC1(C)C` [Example B49, N-[(1S,2S)-3-(4-Allylcarbamoyl-5,5-dimethyl-thiazolidin-3-yl)-1-benzyl-2-hydroxy-3-oxo-propyl]-2-methyl-nicotinamide] to `Cc1c(O)cccc1C(=O)N[C@@H](Cc1ccccc1)[C@H](O)C(=O)N1COC(C)(C)[C@H]1C(=O)NCC#N` [Example C10, (S)-3-((2S,3S)-2-Hydroxy-3-{[1-(3-hydroxy-2-methyl-phenyl)-methanoyl]-amino}-4-phenyl-butanoyl)-5,5-dimethyl-oxazolidine-4-carboxylic acid cyanomethyl-amide], the Ki rises from 17.2 nM to 36 nM (2.1-fold).

In the case of `Cc1ccccc1CNC(=O)[C@@H]1[C@@H](C)OCN1C(=O)[C@@H](O)[C@H](Cc1ccccc1)NC(=O)c1cccc(O)c1C` [Example C5, (4S,5R)-3-((2S,3S)-2-Hydroxy-3-{[1-(3-hydroxy-2-methyl-phenyl)-methanoyl]-amino}-4-phenyl-butanoyl)-5-methyl-oxazolidine-4-carboxylic acid 2-methyl-benzylamide], the Ki is reported as 3.2 nM.

Same assay, conditions: Ki, table of drawn compounds, unit inferred

First: Cc1c(O)cccc1C(=O)N[C@@H](Cc1ccccc1)[C@H](O)C(=O)N1CSC(C)(C)[C@H]1C(=O)NCc1cccc(C(F)(F)F)c1F
Second: Cc1c(O)cccc1C(=O)N[C@@H](Cc1ccccc1)[C@H](O)C(=O)N1CSC(C)(C)C1C(=O)NCCc1ccc(O)cc1 (stereo partly shown)
The Ki of the first is 4.7-fold higher: 62 nM for the first, 13.1 nM for the second. The second binds more tightly here.

Going from `Cc1ccccc1CNC(=O)[C@H]1N(C(=O)[C@@H](O)[C@H](Cc2ccccc2)NC(=O)c2cccnc2Cl)CSC1(C)C` to `Cc1ccccc1CNC(=O)[C@H]1N(C(=O)[C@@H](O)[C@H](Cc2ccccc2)NC(=O)C2=CCCC2)CSC1(C)C`, the Ki rises from 0.75 nM to 3.4 nM (4.5-fold). The first binds more tightly here.

First: COc1cccc(C(=O)[C@H]2N(C(=O)[C@@H](O)[C@H](Cc3ccccc3)NC(=O)c3cccc(O)c3C)CSC2(C)C)c1
Second: Cc1c(O)cccc1C(=O)N[C@@H](Cc1ccccc1)[C@H](O)C(=O)N1CSC(C)(C)[C@H]1C(=O)NCC(C)C
The Ki of the first is higher: 7.4 nM for the first, no more than 0.1 nM for the second. The second binds more tightly here.

First: Cc1ccccc1CNC(=O)[C@H]1N(C(=O)[C@@H](O)[C@H](Cc2ccccc2)NC(=O)C2CCCC2)CSC1(C)C
Second: CCC(C)CNC(=O)[C@H]1N(C(=O)[C@@H](O)[C@H](Cc2ccccc2)NC(=O)c2cccc(O)c2C)CSC1(C)C (stereo partly shown)
The Ki of the first is higher: 12.1 nM for the first, no more than 0.1 nM for the second. The second binds more tightly here.

Same assay, conditions: RET assay, Q7S enzyme, pH 4.8, 37 C; read-out: Ave. Ki

Compared with `Cc1c(O)cccc1C(=O)N[C@@H](Cc1ccccc1)[C@H](O)C(=O)N1CSC(C)(C)[C@H]1C(=O)NCc1ccc2c(c1)OCO2` [Example A22, 3-((2S,3S)-2-Hydroxy-3-{[1-(3-hydroxy-2-methyl-phenyl)-methanoyl]-amino}-4-phenyl-butanoyl)-5,5-dimethyl-thiazolidine-4-carboxylic acid (benzo[1,3]dioxol-5-ylmethyl)-amide], `Cc1c(O)cccc1C(=O)N[C@@H](Cc1ccccc1)[C@H](O)C(=O)N1CSC(C)(C)[C@H]1C(=O)NCc1ccc2c(c1)OC(F)(F)O2` [Example A48, (R)-3-((2S,3S)-2-Hydroxy-3-{[1-(3-hydroxy-2-methyl-phenyl)-methanoyl]-amino}-4-phenyl-butanoyl)-5,5-dimethyl-thiazolidine-4-carboxylic acid (2,2-difluoro-benzo[1,3]dioxol-5-ylmethyl)-amide] is 1.7-fold lower in Ki: 0.32 nM for the first, 0.19 nM for the second. The second binds more tightly here.

First: Cc1ccccc1CNC(=O)[C@H]1N(C(=O)[C@@H](O)[C@H](Cc2ccccc2)NC(=O)N2CC[C@@H](O)C2)CSC1(C)C [Example B1, 3-(2-hydroxy-3-{[1-(3-hydroxy-pyrrolidin-yl)-methanoyl]-amino}-4-phenyl-butanoyl)-5,5-dimethyl-thiazolidine-4-carboxylic acid-2-methyl-benzylamide]
Second: Cc1ccccc1CNC(=O)C1N(C(=O)[C@@H](O)[C@H](Cc2ccccc2)NC(=O)c2ccc(O)cn2)CSC1(C)C (stereo partly drawn) [Example B46, Pyridine-2–5-hydroxy-carboxylic acid{(1S,2S)-1-benzyl-3-[5,5-dimethyl-4-(2-methyl-benzylcarbamoyl)-thiazolidin-3-yl]-2-hydroxy-3-oxo-propyl}-amide]
The Ki of the first is 5-fold lower: 2.5 nM for the first, 12.5 nM for the second.

Going from `Cc1ccccc1CNC(=O)[C@@H]1CC(F)(F)CN1C(=O)[C@@H](O)[C@H](Cc1ccccc1)NC(=O)c1cccc(O)c1C` [Example C1, (S)-4,4-Difluoro-1-[(2S,3S)-2-hydroxy-3-(3-hydroxy-2-methyl-benzoylamino)-4-phenyl-butyryl]-pyrrolidine-2-carboxylic acid 2-methyl-benzylamide.] to `C=CCCC(=O)[C@H]1N(C(=O)[C@@H](O)[C@H](Cc2ccccc2)NC(=O)c2cccc(O)c2C)CSC1(C)C` [Example D1, N-[(1S,2S)-1-Benzyl-3-((R)-5,5-dimethyl-4-pent-4-enoyl-thiazolidin-3-yl)-2-hydroxy-3-oxo-propyl]-3-hydroxy-2-methyl-benzamide], the Ki falls from 0.38 nM to less than 0.01 nM.

Same assay, conditions: table of drawn compounds, unit inferred; read-out: Ki

For `Cc1ccccc1CNC(=O)[C@H]1N(C(=O)[C@@H](O)[C@H](Cc2ccccc2)NC(=O)Cc2c(F)cccc2F)CSC1(C)C`, the Ki was 72 nM.
